Laboratory results published in US10456451B2, “Protease-resistant mutants of stromal cell derived factor-1 in the repair of tissue damage” (Mesoblast International Sàrl, priority 2010, dated 2019).
pEC50: −log10 of the molar value. “And” between values parts separate entries of the source, which are not always exact repeats. Identical values can stand only once.

Experiments:
Type in all cases: cell-based
[1] = test system: Jurkat T-lymphocytic cells; experiment: Jurkat T-lymphocyte migration (chemotaxis) assay; details: for pEC50 / Jurkat Chemotaxis EC50: Jurkat cells, 3 hours migration; for activity of C-terminal variant relative to SDF-1 and SSDF-1: Jurkat migration, CXCR4 cAMP and CXCR β-arrestin assays; for activity of C-terminal variant relative to SDF-1 and SSDF-1 / activity in Jurkat cell migration assay: result in words
Experimental: Jurkat cells were labeled with Calcein-AM (1 μM) for 60 minutes at 37° C., washed twice and resuspended in RPMI without phenol red to a final density of 4,000,000 cells/ml. […] Cells were allowed to migrate for 3 hours, and cells in lower wells were washed once with PBS. Fluorescence in lower wells was measured at 485 nm excitation and 535 nm emission wavelengths with a Victor Wallace II plate reader. A standard curve was constructed for each experiment to normalize fluorescence to the number of cells.

CXCR4 = CXCR4 (Homo sapiens, UniProt P61073); experiment: CXCR4 cAMP receptor activation assay (CHO-K1 cells expressing CXCR4); set-up: host or cells: CHO-K1; details: decrease in cAMP by Gαi activation, forskolin at EC80
Experimental: For the CXCR4 cAMP assay, CHO-K1 cells stably expressing the CXCR4 receptor (DiscoveRx, Fremont, Calif.) were seeded at a density of 10,000 cells/well in a 384-well plate and were allowed to recover overnight. A decrease in cAMP by CXCR4-induced Gαi activation was determined using the DiscoveRx HitHunter cAMP XS+assay following the manufacturer's protocol. […] Chemiluminescence was read with a PerkinElmer ViewLux instrument.

CXCR7 = CXCR7 (Homo sapiens, UniProt P25106); experiment: CXCR7 β-arrestin recruitment assay (PathHunter)
Experimental: PathHunter β-arrestin assays were performed following the instructions of the manufacturer (DiscoveRx). Briefly, PathHunter cell lines stably expressing both a β-arrestin-Enzyme Acceptor of β-galactosidase fusion and one of the chemokine receptors fused with the ProLink donor peptide of […] were employed. Upon CXCR stimulation, β-arrestin is recruited to the receptor for desensitization, bringing the two fragments (the Enzyme Acceptor and the ProLink) of β-galactosidase together. This generates an active β-galactosidase enzyme that can convert a substrate to a chemiluminescent product. Cells were seeded at a density of 5000 cells/well in a 384-well plate and were allowed to adhere overnight. […] After incubation, chemiluminescent signal was generated through addition of 12.5 μl (50% v/v) of PathHunter Detection reagent cocktail (DiscoveRx) followed by a 1-hour incubation at room temperature. Microplates were read with a PerkinElmer ViewLux instrument.

Sequence of CXCR7 (P25106 whole entry, the tested form may be a part): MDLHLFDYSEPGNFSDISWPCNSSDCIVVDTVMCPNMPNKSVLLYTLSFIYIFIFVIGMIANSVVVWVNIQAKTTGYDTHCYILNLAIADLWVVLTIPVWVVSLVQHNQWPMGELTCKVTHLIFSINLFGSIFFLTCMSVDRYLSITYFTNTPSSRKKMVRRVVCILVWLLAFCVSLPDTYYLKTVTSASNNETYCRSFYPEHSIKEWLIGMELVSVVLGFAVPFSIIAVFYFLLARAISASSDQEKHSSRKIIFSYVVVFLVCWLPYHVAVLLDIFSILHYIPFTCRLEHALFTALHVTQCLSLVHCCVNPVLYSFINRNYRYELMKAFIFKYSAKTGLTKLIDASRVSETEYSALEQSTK
Sequence of CXCR4 (P61073 whole entry): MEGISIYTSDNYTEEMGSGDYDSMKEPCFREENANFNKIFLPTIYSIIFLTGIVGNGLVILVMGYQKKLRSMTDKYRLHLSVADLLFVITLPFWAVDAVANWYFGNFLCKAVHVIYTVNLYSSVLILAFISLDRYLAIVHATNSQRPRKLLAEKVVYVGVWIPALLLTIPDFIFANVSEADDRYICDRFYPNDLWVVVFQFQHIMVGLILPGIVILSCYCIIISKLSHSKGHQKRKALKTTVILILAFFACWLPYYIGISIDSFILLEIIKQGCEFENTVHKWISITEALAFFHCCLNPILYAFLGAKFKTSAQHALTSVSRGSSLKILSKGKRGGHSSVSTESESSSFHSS

Row | Substance | Jurkat Chemotaxis EC50 [1] | pEC50 [1] | activity in Jurkat cell migration assay [1] | pEC50 (CXCR7) | also measured
1 | SDF-1: Unmutated SDF-1α, 68 amino acids, SEQ ID NO:52 [reference compound] | – | 8.82 and 8.74 | – | – | –
2 | SSDF-1 (+69S): SSDF-1 with an amino acid residue (serine) added to the C-terminal end | – | 7.92 | – | – | pEC50 ([1]; listed as SSDF-1(+69S)): 8.70; activity of C-terminal variant relative to SDF-1 and SSDF-1 [1]: retains significant activity
3 | SSDF-1 (L5E): SDF-1 with Leu→Glu at position 5 and N-terminal serine | Inactive | – | inactive | – | –
4 | SSDF-1 (L5P): SDF-1 with Leu→Pro at position 5 (SEQ ID NO:66) and N-terminal serine | – | 6.92 | – | 6.65 | CXCR4 (cAMP) EC50 (CXCR4): Inactive
5 | SSDF-1 (L5T): SDF(L5T) (SEQ ID NO:56) with N-terminal serine | – | 7.70 | – | 8.06 | pEC50 (CXCR4): 8.44
6 | SSDF-1 (L5V): SDF(L5V) (SEQ ID NO:60) with N-terminal serine | – | 7.44 | – | 7.68 | pEC50 (CXCR4): 7.48
7 | SSDF-1 (S6C): SDF(S6C) (SEQ ID NO:61) with N-terminal serine | – | 7.64 | – | 7.54 | pEC50 (CXCR4): 7.92
8 | SSDF-1 (S6G): SDF(S6G) (SEQ ID NO:62) with N-terminal serine | – | 7.96 | – | 7.60 | pEC50 (CXCR4): 8.07
9 | SSDF-1 (V3C): SDF(V3C) (SEQ ID NO:55) with N-terminal serine | – | 7.82 | – | 7.85 | pEC50 (CXCR4): 9.22
10 | SSDF-1 (V3H): SDF(V3H) (SEQ ID NO:54) with N-terminal serine | – | 8.17 | – | 7.04 | pEC50 (CXCR4): 9.00
11 | SSDF-1 (V3P): SDF-1 with Val→Pro at position 3 and N-terminal serine | Inactive | – | inactive | – | –
12 | SSDF-1 (−68K): SDF-1 lacking the C-terminal lysine, with N-terminal serine | – | 8.66 | – | – | pEC50 ([1]; listed as SSDF-1(−68K)): 8.89; activity of C-terminal variant relative to SDF-1 and SSDF-1 [1]: unchanged
13 | SSDF-1(S4V)(−68K): SSDF-1(S4V) lacking the C-terminal lysine | – | 8.00 | – | – | –
14 | SSDF-1(S4V)-RADI: Fusion protein of SSDF-1(S4V) and RAD16-I sequence, six glycine linker (SEQ ID NO:75) | – | 7.74 | – | – | –
15 | SSDF-1(S4V)γ: SDF-1γ version of SSDF-1(S4V) | – | 7.33 | – | – | –

More lines, main results first:

Row | Jurkat Chemotaxis EC50 [1] | Substance | pEC50 [1] | activity in Jurkat cell migration assay [1] | pEC50 (CXCR7) | also measured
16 | Inactive | SSDF-1 (L5D): SDF-1 with Leu→Asp at position 5 and N-terminal serine | – | inactive | – | –
17 | Inactive | SSDF-1 (L5H): SDF-1 with Leu→His at position 5 and N-terminal serine | – | inactive | – | –
18 | Inactive | SSDF-1 (L5K): SDF-1 with Leu→Lys at position 5 and N-terminal serine | – | inactive | – | –
19 | Inactive | SSDF-1 (L5W): SDF-1 with Leu→Trp at position 5 and N-terminal serine | – | inactive | – | –
20 | Inactive | SSDF-1 (V3D): SDF-1 with Val→Asp at position 3 and N-terminal serine | – | inactive | – | –
21 | Inactive | SSDF-1 (V3G): SDF-1 with Val→Gly at position 3 and N-terminal serine | – | inactive | – | –
